Assay results published in patent US8039458B2, “HIV integrase inhibitors” (priority 2005, dated 2011).

Tests used:
HIV-Integrase = target: T1, HIV-Integrase (Human immunodeficiency virus type 1 group M subtype B, UniProt P12497); assay: HIV-Integrase binding assay (competition with [3H]-compound I, SPA); conditions: competitive binding vs [3H]-compound I to purified integrase; Ki by Cheng and Prusoff; read-out: in vitro binding
T1 construct: Recombinant integrase (0.26 ng) was incubated with the beads
Protocol: HIV-Integrase Inhibition Activity. To evaluate in-vitro activity against HIV-integrase, 5 pmole of biotin labeled substrate DNA was bound to 100 μg of Streptavidin coated PVT SPA beads (Amersham Pharmacia Biotech). Recombinant integrase (0.26 ng) was incubated with the beads for 90 min at 37° C. Unbound enzyme was removed by washing the complex followed by addition of inhibitors and 0.1 fmol of P33 labeled target DNA. The reaction was stopped by adding EDTA to a final concentration of 10 mM. Samples were counted in TopCountNXT (Packard) and the CPM was used as a measure of integration. The reaction condition was as described in A. Engelman and R. Craigie, J. Virol. 69, 5908-5911 (1995). The sequences of substrate and target DNA were described in Nucleic Acid Research 22,1121-1122 (1994).
HIV-Integrase binding assay. In this assay competitive binding experiments with test compounds and a radiolabeled integrase inhibitor (compound I) are performed against purified integrase. SPA bead/DNA/enzyme complexes were prepared as for the integrase inhibition assay except, to each well, 0.69 μl of integrase enzyme ([…]) was used per 2 μl of LTR DNA-attached scintillation proximity beads (stock 50 mg/ml). Binding reactions were carried out in 96-well white polystyrene assay plates (Corning, #3600). The following was added sequentially to each well: 20 μl of water or 20 μl of human serum (Cellgro Cat# 35-060-CL), 5 μl of serially diluted compound (in 50% DMSO/50% integrase SPA buffer), 5 μl of [^3H]-compound I (6,000 cpm/μl in SPA buffer) and 20 μl of bead/DNA/enzyme complex. The plates were shaken for 2 hours and then allowed to sit at room temperature without shaking overnight. The [^3H]-compound I binding was measured using a Topcount scintillation counter. Cheng and Prusoff equations were used to convert the inhibition of compound 1 binding into the corresponding Ki value. Activity equal to A refers to a compound having Ki=0.001 to 0.003 μM while B and C denote compounds having Ki=0.003 to 0.05 μM and Ki≧0.050 μM respectively.

[1] = system: recombinant NL-Rluc virus; assay: Inhibition of HIV replication (NL-RLuc virus, Renilla luciferase); assay type: cell-based; conditions: Human immunodeficiency virus 1, read-out: antiviral actitively

Structure (SMILES) | Ki (HIV-Integrase) [nM] | EC50 [1] [nM] | melting point [°C]
O=C(NCc1ccc(F)cc1)c1nc2n(c(=O)c1O)CCOCC2 [Example 31, N-((4-fluorophenyl)methyl)-3-hydroxy-4-oxo-6,7,9,10-tetrahydro-4H-pyrimido[1,2-d][1,4]oxazepine-2-carboxamide] | 3 to 50 | > 50 | 197 to 199
Cc1cnnn1-c1cc(F)ccc1CNC(=O)c1nc2n(c(=O)c1O)CCOCC21CCOCC1 [Example 37, N-((4-fluoro-2-(5-methyl-1H-1,2,3-triazol-1-yl)phenyl)methyl)-3′-hydroxy-4′-oxo-2,3,5,6,6′,7′-hexahydro-4′H-spiro[pyran-4,10′-pyrimido[1,2-d][1,4]oxazepine]-2′-carboxamide] | 3 to 50 | 10 to 50 | 
Cc1nc(C)n(-c2cc(F)ccc2CNC(=O)c2nc3n(c(=O)c2O)CCOCC32CCCC2)n1 [Example 24, N-((2-(3,5-dimethyl-1H-1,2,4-triazol-1-yl)-4-fluorophenyl)methyl)-3′-hydroxy-4′-oxo-6′,7′-dihydro-4′H-spiro[cyclopentane-1,10′-pyrimido[1,2-d][1,4]oxazepine]-2′-carboxamide] | 3 to 50 | 1 to 10 | 
Cc1cnnn1-c1cc(F)ccc1CNC(=O)c1nc2n(c(=O)c1O)CCOCC2(C)C [Example 19, N-(4-fluoro-2-(5-methyl-1H-1,2,3-triazol-1-yl)benzyl)-3-hydroxy-10,10-dimethyl-4-oxo-6,7,9,10-tetrahydro-4H-pyrimido[1,2-d][1,4]oxazepine-2-carboxamide] | 3 to 50 | 1 to 10 | 
CC1(C)COCCn2c1nc(C(=O)NCc1ccc(F)cc1S(C)(=O)=O)c(O)c2=O [Example 3, N-((4-Fluoro-2-(methylsulfonyl)phenyl)methyl)-3-hydroxy-10,10-dimethyl-4-oxo-6,7,9,10-tetrahydro-4H-pyrimido[1,2-d][1,4]oxazepine-2-carboxamide] | 3 to 50 | 1 to 10 | 
Cc1ncnn1-c1cc(F)ccc1CNC(=O)c1nc2n(c(=O)c1O)CCOCC21CCCC1 [Example 23, N-((4-fluoro-2-(5-methyl-1H-1,2,4-triazol-1-yl)phenyl)methyl)-3′-hydroxy-4′-oxo-6′,7′-dihydro-4′H-spiro[cyclopentane-1,10′-pyrimido[1,2-d][1,4]oxazepine]-2′-carboxamide] | 1 to 3 | 1 to 10 | 
CCc1ncnn1-c1cc(F)ccc1CNC(=O)c1nc2n(c(=O)c1O)CCOCC21CCCC1 [Example 22, N-((2-(5-ethyl-1H-1,2,4-triazol-1-yl)-4-fluorophenyl)methyl)-3′-hydroxy-4′-oxo-6′,7′-dihydro-4′H-spiro[cyclopentane-1,10′-pyrimido[1,2-d][1,4]oxazepine]-2′-carboxamide] | 3 to 50 | 1 to 10 | 
Cc1ncn(-c2cc(F)ccc2CNC(=O)c2nc3n(c(=O)c2O)CCOCC32CCOCC2)n1 [Example 35, N-((4-fluoro-2-(3-methyl-1H-1,2,4-triazol-1-yl)phenyl)methyl)-3′-hydroxy-4′-oxo-2,3,5,6,6′,7′-hexahydro-4′H-spiro[pyran-4,10′-pyrimido[1,2-d][1,4]oxazepine]-2′-carboxamide] | 3 to 50 | 1 to 10 | 
Cc1ncnn1-c1cc(F)ccc1CNC(=O)c1nc2n(c(=O)c1O)CCOCC21CCC1 [Example 10, N-((4-fluoro-2-(5-methyl-1H-1,2,4-triazol-1-yl)phenyl)methyl)-3′-hydroxy-4′-oxo-6′,7′-dihydro-4′H-spiro[cyclobutane-1,10′-pyrimido[1,2-d][1,4]oxazepine]-2′-carboxamide] | 1 to 3 | 1 to 10 | 
O=C(NCc1ccc(F)cc1-n1cncn1)c1nc2n(c(=O)c1O)CCOCC21CCCC1 [Example 14, N-((4-fluoro-2-(1H-1,2,4-triazol-1-yl)phenyl)methyl)-3′-hydroxy-4′-oxo-6′,7′-dihydro-4′H-spiro[cyclopentane-1,10′-pyrimido[1,2-d][1,4]oxazepine]-2′-carboxamide] | 1 to 3 | 1 to 10 | 
CC1(C)COCCn2c1nc(C(=O)NCc1ccc(F)cc1N1CCCC1=O)c(O)c2=O [Example 16, N-((4-fluoro-2-(2-oxo-1-pyrrolidinyl)phenyl)methyl)-3-hydroxy-10,10-dimethyl-4-oxo-6,7,9,10-tetrahydro-4H-pyrimido[1,2-d][1,4]oxazepine-2-carboxamide] | 1 to 3 | 1 to 10 | 
CS(=O)(=O)c1cc(F)ccc1CNC(=O)c1nc2n(c(=O)c1O)CCOCC21CCCC1 [Example 13, N-((4-fluoro-2-(methylsulfonyl)phenyl)methyl)-3′-hydroxy-4′-oxo-6′,7′-dihydro-4′H-spiro[cyclopentane-1,10′-pyrimido[1,2-d][1,4]oxazepine]-2′-carboxamide] | 1 to 3 | 1 to 10 | 
